These results are taken from ChEMBL document CHEMBL1140968, “QSAR, action mechanism and molecular design of flavone and isoflavone derivatives with cytotoxicity against HeLa” (2008).

For this experiment, the system named is HeLa. The experiment can be described thus: Cytotoxicity against human HeLa cells. The format is functional.

On to `CO/N=C(/COc1ccc2oc(-c3ccccc3)cc(=O)c2c1)c1ccc(OC)cc1`, for which the GC50 amounted to 2000 nM and the pGC50 is listed as 5.699.
Molecule `CO/N=C(\C)COc1ccc2c(=O)c(-c3ccccc3)coc2c1` showed a GC50 of 8500 nM and a pGC50 of 5.071.
Turning to `O=c1c(OC/C(=N/O)c2ccccc2)c(-c2ccccc2)oc2ccccc12`, the GC50 was 1800 nM and the pGC50 was 5.745.
Taken in the same sequence, the figures for `O=c1c(OC/C(=N/O)c2ccc(F)cc2)c(-c2ccccc2)oc2ccccc12` were 2100 nM and 5.678.
Molecule `C/C(COc1c(-c2ccccc2)oc2ccccc2c1=O)=N\O` displayed a GC50 of 2000 nM and a pGC50 of 5.699.
Taken in the same sequence, the figures for `CO/N=C(\C)COc1c(-c2ccccc2)oc2ccccc2c1=O` were 2000 nM and 5.699.
On to `CO/N=C(\C)COc1ccc2oc(-c3ccccc3)cc(=O)c2c1`, for which the GC50 was 900 nM and the pGC50 worked out at 6.046.
`CO/N=C(\C)COc1ccc2c(=O)cc(-c3ccccc3)oc2c1`: the GC50 came out at 2200 nM and the pGC50 is 5.658.
On the same counts, the results for `C/C(COc1ccc2oc(-c3ccccc3)cc(=O)c2c1)=N\O` are 1200 nM and 5.921.
Consider `C/C(COc1ccc2c(=O)c(-c3ccccc3)coc2c1)=N\O`, for which the GC50 was 9800 nM and the pGC50 was found to be 5.009.
Regarding `O=c1cc(-c2ccccc2)oc2ccc(OC/C(=N/O)c3ccccc3)cc12`, the GC50 came out at 800 nM and the pGC50 turned out to be 6.097.
Taken in the same sequence, the figures for `O=c1cc(-c2ccccc2)oc2ccc(OC/C(=N/O)c3ccc(F)cc3)cc12` were 1600 nM and 5.796.
The molecule `O=c1cc(-c2ccccc2)oc2cc(OC/C(=N/O)c3ccccc3)ccc12` gave a GC50 of 2000 nM and a pGC50 of 5.699.
As to `CO/N=C(/COc1c(-c2ccccc2)oc2ccccc2c1=O)c1ccc(F)cc1`, the GC50 was determined as 2000 nM and the pGC50 was 5.699.
For the molecule `CO/N=C(/COc1c(-c2ccccc2)oc2ccccc2c1=O)c1ccc(OC)cc1`, the GC50 came to 2000 nM and the pGC50 was determined as 5.699.
`CO/N=C(/COc1ccc2oc(-c3ccccc3)cc(=O)c2c1)c1ccc(F)cc1`: the GC50 came out at 2300 nM and the pGC50 worked out at 5.638.
In turn, `O=c1cc(-c2ccccc2)oc2cc(OC/C(=N/O)c3ccc(F)cc3)ccc12` registered a GC50 of 2000 nM and a pGC50 of 5.699.
As to `CO/N=C(/COc1ccc2c(=O)c(-c3ccccc3)coc2c1)c1ccccc1`, the GC50 worked out at 8200 nM and the pGC50 was determined as 5.086.
Consider `COc1ccc(/C(COc2ccc3c(=O)cc(-c4ccccc4)oc3c2)=N\O)cc1`, for which the GC50 came out at 2000 nM and the pGC50 is 5.699.
`O=c1c(-c2ccccc2)coc2cc(OC/C(=N/O)c3ccccc3)ccc12` displayed a GC50 of 9000 nM and a pGC50 of 5.046.
For the molecule `CO/N=C(/COc1c(-c2ccccc2)oc2ccccc2c1=O)c1ccccc1`, the GC50 came to 1600 nM and the pGC50 was found to be 5.796.
For the molecule `CO/N=C(/COc1ccc2c(=O)cc(-c3ccccc3)oc2c1)c1ccccc1`, the GC50 stood at 6600 nM and the pGC50 was found to be 5.18.
`CO/N=C(/COc1ccc2c(=O)cc(-c3ccccc3)oc2c1)c1ccc(F)cc1`: the GC50 was determined as 2700 nM and the pGC50 is recorded as 5.569.
For `CO/N=C(/COc1ccc2c(=O)cc(-c3ccccc3)oc2c1)c1ccc(OC)cc1`, the GC50 came to 2500 nM and the pGC50 turned out to be 5.602.
In the case of `CO/N=C(/COc1ccc2c(=O)c(-c3ccccc3)coc2c1)c1ccc(F)cc1`, the GC50 turned out to be 6400 nM and the pGC50 was determined as 5.194.
Molecule `CO/N=C(/COc1ccc2c(=O)c(-c3ccccc3)coc2c1)c1ccc(OC)cc1` gave a GC50 of 7300 nM and a pGC50 of 5.137.
`O=c1c(-c2ccccc2)coc2cc(OC/C(=N/O)c3ccc(F)cc3)ccc12` had a GC50 of 7800 nM and a pGC50 of 5.108.
`C/C(COc1ccc2c(=O)cc(-c3ccccc3)oc2c1)=N\O` registered a GC50 of 2000 nM and a pGC50 of 5.699.
In turn, `COc1ccc(/C(COc2ccc3oc(-c4ccccc4)cc(=O)c3c2)=N\O)cc1` showed a GC50 of 1000 nM and a pGC50 of 6.
Regarding `CO/N=C(/COc1ccc2oc(-c3ccccc3)cc(=O)c2c1)c1ccccc1`, the GC50 is 2400 nM and the pGC50 is 5.62.
`COc1ccc(/C(COc2ccc3c(=O)c(-c4ccccc4)coc3c2)=N\O)cc1` yielded a GC50 of 7600 nM and a pGC50 of 5.119.
`COc1ccc(/C(COc2c(-c3ccccc3)oc3ccccc3c2=O)=N\O)cc1` displayed a GC50 of 2000 nM and a pGC50 of 5.699.
